We go through 1 compound from US20260132103A1, “Bumetanide Derivatives for the Therapy of Stroke and Other Neurological Diseases/Disorders Involving NKCCs” (University of Pittsburgh - Of the Commonwealth System of …, priority 2018, published 2026).

Series [1] has as its system transient focal cerebral ischemia (tMCAO) in mice. The series is described as follows: Brain infarct volume and swelling after transient focal cerebral ischemia (tMCAO). In kind it is in vivo, mouse. Conditions: 24 h reperfusion, i.p. The procedure:
(§1) FIGS. 1A-1C: Efficacy of NKCC1 inhibitors in reducing ischemic infarction, cerebral edema, and the post-stroke survival in normotensive mice after tMCAO (see Example 3). (1A) Experimental protocol and data collection. Transient middle cerebral artery occlusion (tMCAO) was induced in normal C57/b6 mice. DMSO, BMT (10 mg/kg body weight), STS5 (13 mg/kg) or STS66 (12 mg/kg) was administered via intraperitoneal injection (i.p.) as described in method. (1 B) Representative TTC staining images in normotensive mice at 24 h reperfusion with quantitative analysis of infarct volume. Data are mean±SD, n=6-13 (male, n=3-9; female, n=3-4, *p<0.05). Scale: 5 mm. (1C) Percentage hemisphere swelling at 24 h reperfusion. Data are mean±SD, n=6-13, *p<0.05. (1D) Body weight change during 1-14 days after tMCAO. Data are mean±SD, n=5-9 (male, n=4; female, n=2, *p<0.05). (1E) Survival curve during 1-14 day after tMCAO. Data are mean±SD, n=5-9 (male, n=3-7; female, n=2, *p<0.05).
(§2) Transient focal cerebral ischemia was induced in mice by intraluminal occlusion of the left middle cerebral artery (MCA) for 50 min as described previously (Chen H et al., 2005). Mice were anesthetized with 3% isoflurane in 70%: 30% N2O/O2 until they were unresponsive to the tail pinch test. Animals were then fitted with a nose cone blowing 1.5% isoflurane for anesthesia maintenance. The left common carotid artery was exposed and the occipital artery branches of the external carotid artery were isolated and coagulated. The internal carotid artery was isolated and the extracranial branch was dissected and ligated. A rubber silicon-coated monofilament suture (6-0) was introduced into the internal carotid artery lumen and gently advanced approximately 8-9 mm to block the MCA blood flow for 50 min. The rectal temperature was maintained at 37.0±0.5° C. during surgery through a temperature-controlled heating pad. Achievement of ischemia was confirmed by monitoring regional cerebral blood flow (rCBF) with laser speckle contrast imager (Pericam). For reperfusion, the suture was withdrawn after the MCAO. The incision was closed and the mouse recovered under a heating lamp to maintain the core temperature (36.0-37.0° C.) during the 30-60 min recovery period. After recovery, animals were returned to their cages with free access to food and water.
(§3) Vehicle: DMSO (2 ml/kg body weight/day), the NKCC1 inhibitor bumetanide (BMT, 10 mg/kg body weight/day in DMSO), bumetanide's prodrug STS5 (13 mg/kg body weight/day in DMSO), or the novel NKCC1 inhibitor STS66 according to the invention (12 mg/kg body weight/day in DMSO) was administered via intraperitoneal injection (i.p). The initial half dose of the drugs (BMT, STS5, STS66) was given at 3 h after the onset of reperfusion and the second half dose at 8 h reperfusion in the tMCAO model.
At 24 h post-reperfusion, mice were anesthetized with 5% isoflurane and then decapitated. Coronal brain slices (2 mm thickness) were stained with 1% 2,3,5-triphenyltetrazolium chloridemonohydrate (TTC) for 20-30 min and brain slices were scanned (Begum G et al., 2015). Ischemic lesions were traced in each slice in a blinded manner, and the total volume of infarction was calculated with correction for edema, as described by Swanson et al., 1990 using ImageJ software. Infarct areas were summed across all slices and multiplied by slice thickness to yield total infarct volume (mm^3). Brain swelling was determined with the following formula. For tMCAO: swelling (% contralateral hemispheric volume)=[(ipsilateral hemispheric volume)−(contralateral hemispheric volume)]/(contralateral hemispheric volume)×100, as described before (Guo Q G et al., 2009; Sunghee Cho et al., 2005).

Series [2] has the same test system. Put plainly: Body weight and survival 1-14 days after tMCAO. It is filed as in vivo, mouse. The protocol:
as §1, §2, §3

Turning to `CCCCNc1cc(C(=O)OCCN(C)C)cc(S(N)(=O)=O)c1Oc1ccccc1` [STS5], the “infarct volume in female mice” value in series [1] (female mice only, STS5 13, STS66 12 mg/kg/day) is on record as 46.9±5.0 mm^3. Also, the “hemispheric edema (hemisphere swelling)” value in series [1] (normotensive C57BL/6j mice, half dose at 3 h and 8 h reperfusion, BMT 10, STS5 13, STS66 12 mg/kg/day, mean±SD) worked out at 12.6±4.5%. In addition, the infarct volume in series [1] (normotensive C57BL/6j mice, male and female combined, half dose at 3 h and 8 h reperfusion, BMT 10, STS5 13, STS66 12 mg/kg/day, mean±SD) came to 49.5±20.6 mm^3. In addition, the body weight changes entry in series [2] (1-14 days after tMCAO, versus DMSO Veh control) is given as “no differences in the body weight changes”. Further, the mortality rate in series [2] (between 1-14 days post tMCAO, BMT 10, STS5 13, STS66 12 mg/kg/day i.p.) was approximately 66.7%.
